From patent US10201523B2, “Use of wilforlide A for overcoming chemotherapy resistance” (WESTERN UNIVERSITY OF HEALTH SCIENCES, priority 2013, dated 2019)
pIC50: −log10 of the molar value. Several values for one entry are separate records, joined by “and”; a condition that tells them apart may be missing. Equal values may be shown once. Read-outs that look alike come from different tables or passages of the source.

Tests used:
K562 = test: SRB cell viability assay, daunorubicin IC50; assay type: cell-based; conditions: Homo sapiens, 72 h, read-out: Drug IC50 no pre-Tx
K562/Dox = test: SRB cell viability assay, daunorubicin with/without wilforlide A pretreatment; assay type: cell-based; conditions: for viability at 0.001 µM / viability at 0.1 µM / viability at 0.333 µM / viability at 1 µM / viability at 3.33 µM / viability at 10 µM / viability at 33.3 µM / viability at 100 µM / pIC50: Homo sapiens; for A at 565 nm: background = 0.043
Excerpt: Wilforlide A sensitizes the daunorubicin-resistant myelogenous leukemia line K562/Dox, to daunorubicin. […] FIG. 5 summarizes the data of Tables 20 and 21 in a graphical format.

[1] = K562/Dox, no wilforlide A pre-Tx, daunorubicin 0.001 μM 72 h
[2] = K562/Dox, no wilforlide A pre-Tx, daunorubicin 0.333 μM 72 h
[3] = K562/Dox, no wilforlide A pre-Tx, daunorubicin 1 μM 72 h
[4] = K562/Dox, no wilforlide A pre-Tx, daunorubicin 3.33 μM 72 h
[5] = K562/Dox, no wilforlide A pre-Tx, daunorubicin 10 μM 72 h
[6] = K562/Dox, no wilforlide A pre-Tx, daunorubicin 33.3 μM 72 h
[7] = K562/Dox, no wilforlide A pre-Tx, daunorubicin 100 μM 72 h
[8] = K562/Dox, wilforlide A 2.5 μg/ml pre-Tx, daunorubicin 0.001 μM 72 h
[9] = K562/Dox, wilforlide A 2.5 μg/ml pre-Tx, daunorubicin 0.333 μM 72 h
[10] = K562/Dox, wilforlide A 2.5 μg/ml pre-Tx, daunorubicin 1 μM 72 h
[11] = K562/Dox, wilforlide A 2.5 μg/ml pre-Tx, daunorubicin 3.33 μM 72 h
[12] = K562/Dox, wilforlide A 2.5 μg/ml pre-Tx, daunorubicin 10 μM 72 h
[13] = K562/Dox, wilforlide A 2.5 μg/ml pre-Tx, daunorubicin 33.3 μM 72 h
[14] = K562/Dox, wilforlide A 2.5 μg/ml pre-Tx, daunorubicin 100 μM 72 h

Compound: COc1cccc2c1C(=O)c1c(O)c3c(c(O)c1C2=O)C[C@@](O)(C(C)=O)C[C@@H]3O[C@H]1C[C@H](N)[C@H](O)[C@H](C)O1 [daunorubicin]
- pIC50 (K562): 5.98
- viability at 0.001 µM (K562/Dox; K562, 72 h, K562/Dox, no wilforlide A pre-Tx, daunorubicin 0.001 μM 72 h): 100%
- viability at 0.1 µM (K562/Dox; K562, 72 h, K562/Dox, no wilforlide A pre-Tx, daunorubicin 0.1 μM 72 h): 58.1%
- viability at 0.333 µM (K562/Dox; K562, 72 h, K562/Dox, no wilforlide A pre-Tx, daunorubicin 0.333 μM 72 h): 102%
- viability at 1 µM (K562/Dox; K562, 72 h, K562/Dox, no wilforlide A pre-Tx, daunorubicin 1 μM 72 h): 99.6%
- viability at 3.33 µM (K562/Dox; K562, 72 h, K562/Dox, no wilforlide A pre-Tx, daunorubicin 3.33 μM 72 h): 95.9%
- viability at 10 µM (K562/Dox; K562, 72 h, K562/Dox, no wilforlide A pre-Tx, daunorubicin 10 μM 72 h): 92.3%
- viability at 33.3 µM (K562/Dox; K562, 72 h, K562/Dox, no wilforlide A pre-Tx, daunorubicin 33.3 μM 72 h): 53.8%
- viability at 100 µM (K562/Dox; K562, 72 h, K562/Dox, no wilforlide A pre-Tx, daunorubicin 100 μM 72 h): 22.4%
- viability at 0.001 µM (K562/Dox; K562, 72 h, K562/Dox, wilforlide A 2.5 μg/ml pre-Tx, daunorubicin 0.001 μM 72 h): 100%
- viability at 0.1 µM (K562/Dox; K562, 72 h, K562/Dox, wilforlide A 2.5 μg/ml pre-Tx, daunorubicin 0.1 μM 72 h): 54.1%
- viability at 0.333 µM (K562/Dox; K562, 72 h, K562/Dox, wilforlide A 2.5 μg/ml pre-Tx, daunorubicin 0.333 μM 72 h): 104%
- viability at 1 µM (K562/Dox; K562, 72 h, K562/Dox, wilforlide A 2.5 μg/ml pre-Tx, daunorubicin 1 μM 72 h): 99%
- viability at 3.33 µM (K562/Dox; K562, 72 h, K562/Dox, wilforlide A 2.5 μg/ml pre-Tx, daunorubicin 3.33 μM 72 h): 95.4%
- viability at 10 µM (K562/Dox; K562, 72 h, K562/Dox, wilforlide A 2.5 μg/ml pre-Tx, daunorubicin 10 μM 72 h): 78.6%
- viability at 33.3 µM (K562/Dox; K562, 72 h, K562/Dox, wilforlide A 2.5 μg/ml pre-Tx, daunorubicin 33.3 μM 72 h): 33.7%
- viability at 100 µM (K562/Dox; K562, 72 h, K562/Dox, wilforlide A 2.5 μg/ml pre-Tx, daunorubicin 100 μM 72 h): 29.6%
- pIC50 (K562/Dox; K562, 72 h, read-out: Drug IC50 no pre-Tx): 4.51
- pIC50 (K562/Dox; K562, read-out: Drug IC50 after wilforlide A pre-Tx): 4.87
- mean A (K562/Dox; [1]): 2.893
- A at 565 nm (K562/Dox; [1]): 2.848 and 2.923 and 2.909
- mean A (K562/Dox; K562/Dox, no wilforlide A pre-Tx, daunorubicin 0.1 μM 72 h): 1.682
- mean A (K562/Dox; [2]): 2.951
- A at 565 nm (K562/Dox; [2]): 2.943 and 2.956 and 2.955
- mean A (K562/Dox; [3]): 2.880
- A at 565 nm (K562/Dox; [3]): 2.892 and 2.878 and 2.872
- mean A (K562/Dox; [4]): 2.775
- A at 565 nm (K562/Dox; [4]): 2.805 and 2.780 and 2.741
- mean A (K562/Dox; [5]): 2.670
- A at 565 nm (K562/Dox; [5]): 2.678 and 2.720 and 2.613
- mean A (K562/Dox; [6]): 1.556
- A at 565 nm (K562/Dox; [6]): 1.625 and 1.639 and 1.406
- mean A (K562/Dox; [7]): 0.647
- A at 565 nm (K562/Dox; [7]): 0.757 and 0.657 and 0.528
- mean A (K562/Dox; [8]): 2.815
- A at 565 nm (K562/Dox; [8]): 2.797 and 2.838 and 2.810
- mean A (K562/Dox; K562/Dox, wilforlide A 2.5 μg/ml pre-Tx, daunorubicin 0.1 μM 72 h): 1.522
- mean A (K562/Dox; [9]): 2.938
- A at 565 nm (K562/Dox; [9]): 2.838 and 2.951 and 3.025
- mean A (K562/Dox; [10]): 2.786
- A at 565 nm (K562/Dox; [10]): 2.777 and 2.784 and 2.799
- mean A (K562/Dox; [11]): 2.684
- A at 565 nm (K562/Dox; [11]): 2.657 and 2.681 and 2.715
- mean A (K562/Dox; [12]): 2.213
- A at 565 nm (K562/Dox; [12]): 2.200 and 2.392 and 2.049
- mean A (K562/Dox; [13]): 0.947
- A at 565 nm (K562/Dox; [13]): 1.016 and 0.901 and 0.926
- mean A (K562/Dox; [14]): 0.832
- A at 565 nm (K562/Dox; [14]): 0.843 and 0.815 and 0.840
- CE (K562/Dox; chemosensitization effect, K562/Dox, wilforlide A 2.5 μg/ml pre-Tx): 2.27
